Reference: patent publication US20050228188A1, “Astaxanthin medium-chain fatty acid ester, process for producing the same and composition containing the ester” (Suntory Limited, priority 2002, published 2005)

Assay: Digestibility of astaxanthins in rats: astaxanthin content in blood plasma and liver by HPLC after oral administration
Settings: for digestibility (content of astaxanthin in blood plasma and liver) compared with astaxanthin extracted from Haematococcus (Astax9000H): rat, in vivo, po, 100 mg/kg
Procedure: Using a commercially available astaxanthin extracted from Chlorophyceae of Haematococcus (Itano, product name: Astax9000H) and astaxanthins mono- and di-esterified with a medium-chain fatty acid (Asta-C8-monoester and Asta-C8-diester), the digestibility of these astaxanthins was studied using rats. For the experiment, these astaxanthins were diluted with olive oil so as to obtain a ratio of 100 mg/kg in the conversion of a free astaxanthin, and the diluted astaxanthins were administered to rats (Wister rat). The content of astaxanthin contained in the blood (blood plasma) and the liver of each rat was measured using HPLC. The blood and liver were sampled at 3, 5, 7 and 10 hours after the administration.

| SMILES | digestibility (content of astaxanthin in blood plasma and liver) compared with astaxanthin extracted from Haematococcus (Astax9000H) | digestibility, rank among the astaxanthins tested (rats, oral, 100 mg/kg in conversion of free astaxanthin, blood plasma and liver at 3, 5, 7 and 10 hours) |
| --- | --- | --- |
| CCCCCCCC(=O)O[C@H]1CC(C)(C)C(/C=C/C(C)=C/C=C/C(C)=C/C=C/C=C(C)/C=C/C=C(C)/C=C/C2=C(C)C(=O)[C@@H](OC(=O)CCCCCCC)CC2(C)C)=C(C)C1=O [Asta-C8-diester, astaxanthin octanoic acid diester] | much better digestibility | – |
| CCCCCCCC(=O)OC1CC(C)(C)C(C=CC(C)=CC=CC(C)=CC=CC=C(C)C=CC=C(C)C=CC2=C(C)C(=O)C(O)CC2(C)C)=C(C)C1=O (stereo not drawn) [Asta-C8-monoester, astaxanthin octanoic acid monoester] | much better digestibility | most digested |
